Results as given in patent US12692235B2, “Fused ring compound and application thereof” (WUHAN LL SCIENCE AND TECHNOLOGY DEVELOPMENT CO., LTD., priority 2019, dated 2026).

The molecules below were run against T1, hP2X4 (human purinergic P2X receptor subtype 4) (Homo sapiens, UniProt Q99571). Conditions: P2X4 IC50 (nM), HEK293 cells stably expressing hP2X4; agonist BZ-ATP 2.5 μM; FLIPR calcium.
T1 sequence (Q99571 1-404 isoform Q99571-2): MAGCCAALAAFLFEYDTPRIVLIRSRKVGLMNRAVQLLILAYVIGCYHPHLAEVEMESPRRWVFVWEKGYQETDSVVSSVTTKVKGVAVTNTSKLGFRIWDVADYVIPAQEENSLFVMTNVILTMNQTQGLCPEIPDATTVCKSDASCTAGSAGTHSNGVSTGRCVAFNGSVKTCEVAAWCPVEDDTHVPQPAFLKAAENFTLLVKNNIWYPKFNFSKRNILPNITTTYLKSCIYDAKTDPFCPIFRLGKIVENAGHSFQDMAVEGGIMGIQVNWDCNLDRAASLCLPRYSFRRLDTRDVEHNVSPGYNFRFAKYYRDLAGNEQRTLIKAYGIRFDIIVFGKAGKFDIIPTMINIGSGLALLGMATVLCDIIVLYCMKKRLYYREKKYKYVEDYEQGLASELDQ
Experimental: Cells at 400,000 cells/mL were seeded into a 384-well plate (10,000 cells/well) 18-24 h prior to the FLIPR experiment and then incubated overnight in a cell incubator. […] Each well was added with 20 μL of 0.5×Calcium 6 fluorescent dye (Molecular Devices, R8190) and then the cells were subjected to dye-loading incubation at 37° C. for 1.5 h. Each well was added with 10 μL of respective test compound (dissolved in DMSO at a concentration of 10 mM and serially diluted with buffer) or vehicle and the mixture was equilibrated for 30 min at room temperature.

Row | IC50 [nM] | SMILES
1 | 50 to 200 | COc1nccc2c(S(N)(=O)=O)cc(NC(=O)Cc3ccc(F)cc3Cl)cc12 [Compound 94, 2-(2-chloro-4-fluorophenyl)-N-(1-methoxy-5-sulfamoylisoquinolin-7-yl)acetamide]
2 | 200 to 5000 | COc1ccc(F)cc1CC(=O)Nc1cc(S(N)(=O)=O)c2ccnc(OC)c2c1 [Compound 95, 2-(5-fluoro-2-methoxyphenyl)-N-(1-methoxy-5-sulfamoylisoquinolin-7-yl)acetamide]
3 | 200 to 5000 | COc1nccc2c(S(N)(=O)=O)cc(NC(=O)Cc3ccccc3OC(F)(F)F)cc12 [Compound 96, N-(1-methoxy-5-sulfamoylisoquinolin-7-yl)-2-(2-(trifluoromethoxy)phenyl)acetamide]
4 | 50 to 200 | COc1nccc2c(S(N)(=O)=O)cc(NC(=O)Cc3cccc(F)c3Cl)cc12 [Compound 97, 2-(2-chloro-3-fluorophenyl)-N-(1-methoxy-5-sulfamoylisoquinolin-7-yl)acetamide]
5 | 10 to 50 | COC(=O)N1CCc2c(cc(NC(=O)Cc3ccccc3Cl)cc2S(N)(=O)=O)C1 [Compound 99, methyl 7-(2-(2-chlorophenyl)acetamido)-5-sulfamoyl-3,4-dihydroisoquinoline-2(1H)-carboxylate]
6 | 10 to 50 | CC(C)OC(=O)N1CCc2c(cc(NC(=O)Cc3ccccc3Cl)cc2S(N)(=O)=O)C1 [Compound 100, isopropyl-7-(2-(2-chlorophenyl)acetamido)-5-sulfamoyl-3,4-dihydroisoquinoline-2(1H)-carboxylate]
7 | 10 to 50 | NS(=O)(=O)c1cc(NC(=O)Cc2ccccc2Cl)cc2c1CCN(C(=O)OC1CC1)C2 [Compound 101, cyclopropyl-7-(2-(2-chlorophenyl)acetamido)-5-sulfamoyl-3,4-dihydroisoquinoline-2(1H)-carboxylate]
8 | 10 to 50 | CC(=O)N1CCc2c(cc(NC(=O)Cc3ccccc3Cl)cc2S(N)(=O)=O)C1 [Compound 102, N-(2-acetyl-5-sulfamoyl-1,2,3,4-tetrahydroisoquinolin-7-yl)-2-(2-chlorophenyl)acetamide]
9 | 10 to 50 | NS(=O)(=O)c1cc(NC(=O)Cc2ccccc2Cl)cc2c1CCN(C1CC1)C2 [Compound 103, 2-(2-chlorophenyl)-N-(2-cyclopropyl-5-sulfamoyl-1,2,3,4-tetrahydroisoquinolin-7-yl)acetamide]
10 | 50 to 200 | NS(=O)(=O)c1cc(NC(=O)Cc2ccccc2Cl)cc2c1CCN(c1ccccc1)C2 [Compound 104, 2-(2-chlorophenyl)-N-(2-phenyl-5-sulfamoyl-1,2,3,4-tetrahydroisoquinolin-7-yl)acetamide]
11 | 50 to 200 | NS(=O)(=O)c1cc(NC(=O)Cc2ccccc2Cl)cc2c1CCN(C(=O)Oc1ccccc1)C2 [Compound 105, phenyl 7-(2-(2-chlorophenyl)acetamido)-5-sulfamoyl-3,4-dihydroisoquinoline-2(1H)-carboxylate]
12 | 10 to 50 | NS(=O)(=O)c1cc(NC(=O)Cc2ccccc2Cl)cc2c1CCN(C(=O)c1ccccc1)C2 [Compound 106, N-(2-benzoyl-5-sulfamoyl-1,2,3,4-tetrahydroisoquinolin-7-yl)-2-(2-chlorophenyl)acetamide]
13 | 10 to 50 | NS(=O)(=O)c1cc(NC(=O)Cc2ccccc2Cl)cc2c1CCN(C(=O)C1CCC1)C2 [Compound 107]
14 | < 10 | NS(=O)(=O)c1cc(NC(=O)Cc2ccccc2Cl)cc2c1CCN(C(=O)C1CC1)C2 [Compound 108]
15 | 200 to 5000 | CCN1CCc2c(cc(NC(=O)Cc3ccccc3Cl)cc2S(N)(=O)=O)C1 [Compound 109, 2-(2-chlorophenyl)-N-(2-ethyl-5-sulfamoyl-1,2,3,4-tetrahydroisoquinolin-7-yl)acetamide]
16 | 200 to 5000 | NS(=O)(=O)c1cc(NC(=O)Cc2ccccc2Cl)cc2c1CCN(Cc1ccccc1)C2 [Compound 110, N-(2-benzyl-5-sulfamoyl-1,2,3,4-tetrahydroisoquinolin-7-yl)-2-(2-chlorophenyl)acetamide]
17 | 200 to 5000 | NS(=O)(=O)c1cc(NC(=O)Cc2ccccc2Cl)cc2c1CCN(CC1CC1)C2 [Compound 111]
18 | 50 to 200 | CC(C)N1CCc2c(cc(NC(=O)Cc3ccccc3Cl)cc2S(N)(=O)=O)C1 [Compound 113, 2-(2-chlorophenyl)-N-(2-isopropyl-5-sulfamoyl-1,2,3,4-tetrahydroisoquinolin-7-yl)acetamide]
19 | 10 to 50 | NS(=O)(=O)c1cc(NC(=O)Cc2ccccc2Cl)cc2c1CCN(C(=O)C(F)(F)F)C2 [Compound 114, 2-(2-chlorophenyl)-N-(5-sulfamoyl-2-(2,2,2-trifluoroacetyl)-1,2,3,4-tetrahydroisoquinolin-7-yl) acetamide]
20 | 200 to 5000 | NS(=O)(=O)c1cc(NC(=O)Cc2ccccc2Cl)cc2c1CCN(C(Cl)Cl)C2 [Compound 115, 2-(2-chlorophenyl)-N-(2-(dichloromethyl)-sulfamoyl-1,2,3,4-tetrahydroisoquinolin-7-yl)acetamide]
21 | 50 to 200 | NS(=O)(=O)c1cc(NC(=O)Cc2ccccc2Cl)cc2c1CCN(c1ccc(Cl)cn1)C2 [Compound 116, 2-(2-chlorophenyl)-N-(2-(5-chloropyridin-2-yl)-5-sulfamoyl-1,2,3,4-tetrahydroisoquinolin-7-yl)acetamide]
22 | 10 to 50 | NS(=O)(=O)c1cc(NC(=O)Cc2ccccc2Cl)cc2c1CCN(c1ccc(C(F)(F)F)cn1)C2 [Compound 117, 2-(2-chlorophenyl)-N-(5-sulfamoyl-2-(5-(trifluoromethyl)pyridin-2-yl)-1,2,3,4-tetrahydroisoquinolin-7-yl)acetamide]

The next lines start with the molecule.

Row | SMILES | IC50 [nM]
23 | CN1CCN(c2cc3c(S(N)(=O)=O)cc(NC(=O)Cc4ccccc4Cl)cc3cn2)CC1 [Compound 79, 2-(2-chlorophenyl)-N-(3-(4-methylpiperazin-1-yl)-5-sulfamoylisoquinolin-7-yl)acetamide] | 50 to 200
24 | CN1CCN(c2cc3c(S(N)(=O)=O)cc(NC(=O)Cc4ccccc4Cl)cc3cn2)CC1=O [Compound 80, 2-(2-chlorophenyl)-N-(3-(4-methyl-3-carbonylpiperazin-1-yl)-5-sulfamoylisoquinolin-7-yl)acetamide] | 50 to 200
25 | COc1ccc(Nc2cc3c(S(N)(=O)=O)cc(NC(=O)Cc4ccccc4Cl)cc3cn2)cc1 [Compound 81, 2-(2-chlorophenyl)-N-(3-((4-methoxyphenyl)amino)-5-sulfamoylisoquinolin-7-yl)acetamide] | 200 to 5000
26 | COc1ccc(Oc2cc3c(S(N)(=O)=O)cc(NC(=O)Cc4ccccc4Cl)cc3cn2)cc1 [Compound 82, 2-(2-chlorophenyl)-N-(3-(4-methoxyphenoxy)-5-sulfamoylisoquinolin-7-yl)acetamide] | 200 to 5000
27 | CC(C)Nc1cc2c(S(N)(=O)=O)cc(NC(=O)Cc3ccccc3Cl)cc2cn1 [Compound 83, 2-(2-chlorophenyl)-N-(3-(isopropylamino)-5-sulfamoylisoquinolin-7-yl)acetamide] | 50 to 200
28 | COCCOc1cc2c(S(N)(=O)=O)cc(NC(=O)Cc3ccccc3Cl)cc2cn1 [Compound 84, 2-(2-chlorophenyl)-N-(3-(2-methoxyethoxy)-5-sulfamoylisoquinolin-7-yl)acetamide] | 50 to 200
29 | NS(=O)(=O)c1cc(NC(=O)Cc2ccccc2Cl)cc2nc(C3CC3)ccc12 [Compound 85, 2-(2-chlorophenyl)-N-(2-cyclopropyl-5-sulfamoylquinolin-7-yl)acetamide] | 200 to 5000
30 | C#Cc1ccc2c(S(N)(=O)=O)cc(NC(=O)Cc3ccccc3Cl)cc2n1 [Compound 86, 2-(2-chlorophenyl)-N-(2-ethynyl-5-sulfamoylquinolin-7-yl)acetamide] | 200 to 5000
31 | CC#Cc1ccc2c(S(N)(=O)=O)cc(NC(=O)Cc3ccccc3Cl)cc2n1 [Compound 87, 2-(2-chlorophenyl)-N-(2-(prop-1-yn-1-yl)-5-sulfamoylquinolin-7-yl)acetamide] | 10 to 50
32 | CN(C)c1ccc2c(S(N)(=O)=O)cc(NC(=O)Cc3ccccc3Cl)cc2n1 [Compound 88, 2-(2-chlorophenyl)-N-(2-(dimethylamino)-5-sulfamoylquinolin-7-yl)acetamide] | 50 to 200
33 | NS(=O)(=O)c1cc(NC(=O)Cc2ccccc2Cl)cc2nc(N3CCCC3)ccc12 [Compound 89, (2-chlorophenyl)-N-(2-(pyrrolidin-1-yl)-5-sulfamoylquinolin-7-yl)acetamide] | 200 to 5000
34 | N#Cc1nccc2c(S(N)(=O)=O)cc(NC(=O)Cc3ccccc3Cl)cc12 [Compound 90] | 50 to 200
35 | COc1nccc2c(S(N)(=O)=O)cc(NC(=O)Cc3c(Cl)cccc3Cl)cc12 [Compound 91, 2-(2,6-dichlorophenyl)-N-(1-methoxy-5-sulfamoylisoquinolin-7-yl)acetamide] | 200 to 5000
36 | COc1nccc2c(S(N)(=O)=O)cc(NC(=O)Cc3ccc(Cl)cc3Cl)cc12 [Compound 92, 2-(2,4-dichlorophenyl)-N-(1-methoxy-5-sulfamoylisoquinolin-7-yl)acetamide] | 50 to 200
37 | COc1nccc2c(S(N)(=O)=O)cc(NC(=O)Cc3cc(F)ccc3Cl)cc12 [Compound 93, 2-(2-Chloro-5-fluorophenyl)-N-(1-methoxy-5-sulfamoylisoquinolin-7-yl)acetamide] | 50 to 200
38 | NS(=O)(=O)c1cc(NC(=O)Cc2ccccc2Cl)cc2c1CCNC2 [Compound 98, 2-(2-chlorophenyl)-N-(5-sulfamoyl-1,2,3,4-tetrahydroisoquinolin-7-yl)acetamide] | 200 to 5000
39 | CN1CCc2c(cc(NC(=O)Cc3ccccc3Cl)cc2S(N)(=O)=O)C1 [Compound 112, 2-(2-chlorophenyl)-N-(2-methyl-5-sulfamoyl-1,2,3,4-tetrahydroisoquinolin-7-yl)acetamide] | 10 to 50
